Source: US9517229B2, “Treatment of breast cancer” (MEDIVATION PROSTATE THERAPEUTICS, INC., priority 2011, dated 2016)

Experiments:
Hs578T cells = test: MTS viable cell assay in Hs578T TNBC cell line; type: cell-based; conditions: RD162′ 10 μM, DHT 10 nM, 9 days, FIG. 8
Protocol: Viable cells were assayed by MTS assay. Averages of the triplicate data points are shown with standard deviation. ***p<0.001 (two-tail t-test).

MCF7-TGL cells = test: Estrogen stimulated MCF7-TGL orthotopic tumors in ovariectomized nude mice; type: in vivo; conditions: for BrdU staining of tumor sections, P vs E2 group: BrdU two hours prior to sacrifice, ANOVA with Bonferroni correction, FIG. 11D
Protocol: MCF7-TGL cells stably expressing luciferase were implanted orthotopically in the mammary gland of ovariectomized female nude mice. […] The beginning of treatment is indicated by an arrow. Tumor burden was measured by whole body luminescence. […] Mice were matched on day −3 and treatment began on day 0. * indicates P<0.05, ANOVA with Bonferroni's multiple comparison test correction (FIG. 11A). The total luminescent flux is shown for all individual mice at the day of matching (Day −3) and at the final imaging day (Day 11). * indicates P<0.05, ANOVA with Bonferroni's multiple comparison test correction (FIG. 11B). Images of luminescent signal in the two treatment groups at the day of matching ([…]) and the final day of imaging (day 11) is shown (FIG. 11C). Mice were injected with BrdU two hours prior to sacrifice.

MCF7 cells [1] = test: MTT in vitro proliferation assay, DHT-mediated growth in MCF7 cells; type: cell-based; conditions: 10 μM RD162′ with 10 nM DHT; MTT at various time points; FIG. 1
MDA-MB-453 cells [2] = test: MTS in vitro proliferation assay, DHT-induced proliferation of MDA-MB-453 cells; type: cell-based; conditions: 10 μM RD162′, 10 nM DHT, FIG. 7A
MDA468 cells = test: MTT assay in triple negative breast cancer cell line MDA468; type: cell-based; conditions: 10 μM RD162′, FIG. 6C
MDA-MB-453 tumors = test: Androgen stimulated MDA-MB-453 orthotopic tumors in NOD-SCID-IL2Rgc-/- mice (Example 10); type: in vivo
MCF7 cells [3] = test: MTT assay, estradiol-mediated growth in MCF7 cells; type: cell-based; conditions: 10 μM RD162′ with 10 nM estradiol (E2); MTT at various time points; FIG. 3
Protocol: MCF7 cells were plated in phenol red-free medium containing charcoal stripped serum. […] An MTT assay was performed at various time points. The values were normalized to an untreated plate read 24 hours after plating to account for differences in cell density.

[4] = test system: androgen-dependent luciferase reporter in MDA-kb2 cells; test: Luciferase assay in MDA-kb2 cells with androgen-dependent luciferase reporter; type: cell-based; conditions: FIG. 7B
MCF7 cells [5] = test: MCF7 luciferase tumors in mammary fat pad of ovariectomized nod/scid mice with DHT pellet; type: in vivo; conditions: chow containing 50 mg/kg RD162′ from day 22, FIGS. 5A-D
MDA-MB-453 cells [6] = test: MDA-MB-453 xenograft in mammary fat pad of NOD-SCID-IL2Rgc-/- mice with DHT pellet (Example 7); type: in vivo
BT20 cells = test: MTT assay in triple negative breast cancer cell line BT20; type: cell-based; conditions: 10 μM RD162′, FIG. 6B
BCK4 cells = test: Proliferation assay, DHT-mediated growth in BCK4 cells; type: cell-based; conditions: RD162′ and DHT; FIG. 2

Row | SMILES | growth of Hs578T cells (viable cells) (Hs578T cells) | BrdU staining of tumor sections, P vs E2 group (MCF7-TGL cells) | DHT-mediated growth of MCF7 cells (MCF7 cells [1]) | proliferation of MDA-MB-453 cells induced by DHT (MDA-MB-453 cells [2]) | inhibition of estrogen stimulated tumor growth (whole body luminescence) (MCF7-TGL cells; chow containing 50 mg/kg RD162′ vs tamoxifen pellet SQ, E2 pellet, FIGS. 11A-C) | cell growth of MDA468 (MDA468 cells) | cell viability of MDA468 (MDA468 cells) | androgen stimulated growth of MDA-MB-453 tumors (MDA-MB-453 tumors; RD162′ 10 mg/kg daily oral gavage from 100 mm^3, DHT pellet, FIGS. 10A-D) | tumor volume, DHT vs DHT+RD162′ (MDA-MB-453 tumors; RD162′ 25 mg/kg by oral gavage started when tumors reached 400 mm^3, weekly caliper, FIG. 10A) | estradiol-mediated growth of MCF7 cells (MCF7 cells [3]) | DHT-induced signal in luciferase assay (printed as proliferation) [4] | DHT-mediated tumor growth in vivo (caliper and IVIS imaging) (MCF7 cells [5]) | DHT induced tumor growth (tumor weight at necropsy) (MDA-MB-453 cells [6]; 10 mg/kg/d and 25 mg/kg/d RD162′ by oral gavage, both doses, FIG. 7E) | tumor growth induced by DHT (caliper tumor size) (MDA-MB-453 cells [6]; 10 mg/kg/d or 25 mg/kg/d RD162′ by oral gavage, either dose, FIG. 7D) | cell growth of BT20 (BT20 cells) | cell viability of BT20 (BT20 cells) | DHT-mediated growth of BCK4 cells (BCK4 cells)
1 | C[C@]12CCC(=O)C[C@@H]1CC[C@@H]1[C@@H]2CC[C@]2(C)[C@@H](O)CC[C@@H]12 [DHT, dihydrotestosterone, reference compound] | does not increase the growth |  |  |  |  |  |  |  |  |  |  |  |  |  |  |  | 
2 | CC/C(=C(\c1ccccc1)c1ccc(OCCN(C)C)cc1)c1ccccc1 [Tamoxifen, tamoxifen, reference compound] |  | < 0.01 |  |  |  |  |  |  |  |  |  |  |  |  |  |  | 
3 | CNC(=O)c1ccc(N2C(=S)N(c3ccc(C#N)c(C(F)(F)F)c3)C(=O)C2(C)C)cc1F [RD162′, enzalutamide] | Inhibits the Growth | < 0.001 | blocks DHT-mediated growth | inhibits proliferation | as Effective as Tamoxifen | inhibits cell growth | decreases cell viability | Inhibits Androgen Stimulated Growth | no significant differences at any time point | blocks estradiol-mediated growth | inhibits proliferation induced by DHT in a dose dependent manner | inhibits DHT-mediated tumor growth | significantly inhibited DHT induced tumor growth | inhibited tumor growth | inhibits cell growth | decreases cell viability | blocks DHT-mediated growth
